Reference: US20240360076A1, “NONIONIC SURFACTANTS” (priority 2023, published 2024)

Assays:
[1] = tested on: MS2 template; assay: Lyophilized MS2 LAMP chemistry, time to positive; type: biochemical; details: 0%, 0.03% or 0.06%; template 0.12 cp/μL and 0.06 cp/μL
[2] = 2 months
[3] = tested on: Ex2B target template; assay: Ex2B LAMP assay; details: 0.0075% in LAMP MasterMix
Description: DS2 was added at 0%, 0.015%, 0.0575%, and 0.1% to the LAMP MasterMix, or LAMP buffer, containing target-specific primers, dNTPs, DNA polymerase, reverse transcriptase, intercalating fluorescent dye, and the target RNA sequence. This reaction mixture was incubated at 62° C. for 50 minutes and the increase in fluorescence was assessed to determine the time to positivity.
DS2, DS13, and DS17 were added at 0.0075% to the LAMP MasterMix using the above procedure with Ex2B target template (FIG. 4B).

[4] = tested on: SARS-COV-2 target template; assay: SARS-COV-2 LAMP assay; type: biochemical; details: 0.0075% in LAMP MasterMix
[5] = tested on: FluB target RNA sequence; assay: FluB LAMP assay, time to positive; type: biochemical; details: for compatibility with FluB assay: presence of nasal matrix
Description: As the surfactant concentration approaches its critical micelle concentration (CMC), detrimental impact is observed on LAMP performance.
It was determined that DS2 is compatible with FluB assay in the presence of nasal matrix at 0.015%.

[6] = type: physicochemical; details: buffer, 1 month, 0.1 %, pH 8.8
Description: Solutions of isothermal amplification buffers at pH 8.8 containing 0.1% of DS2, DS13, or DS17 were kept at 25° C. and analyzed over time using HPLC. It was observed that 95%-100% of the surfactant remained after one month (FIG. 5A) and therefore DSs are stable in pH 8.8 amplification buffer when stored in ambient conditions.

[7] = CMC determination by dynamic light scattering; type: physicochemical
Description: Average micelle radius data was collected on a DynaPro NanoStar Dynamic Light Scattering Detector. To each disposable cuvette was added 5 μL of the specified solution of DS1, DS2, or DS13 in water (T=25° C., n=10).

SMILES	impact on time to positive (Tp, min) [1]	remaining [2]	compatibility with Ex2B assay [3]	compatibility with SARS-COV-2 assay [4]	compatibility with FluB assay ([5]; 0.0075% in LAMP MasterMix)	surfactant remaining [6]	critical micelle concentration (CMC) [7]	compatibility with FluB assay ([5]; 0.015% in LAMP buffer)	impact on LAMP performance at the CMC ([5]; 0.1% DS2, FluB LAMP, nasal matrix, 62° C. for 50 minutes)	impact on assay specificity below the CMC ([5]; concentrations below the CMC)
CCCCCCCCCCC(=O)N(CCOCCOCCOCCOC)CCOCCOCCOCCOC [DS13]	no detrimental impact	97.1±1.5%	compatible	compatible	compatible	95%-100	–	–	–	–
CCCCCCCCCCC(=O)NCCOCCOCCOCCOCCOCCOC [DS17]	–	–	compatible	compatible	compatible	95%-100	–	–	–	–
CCCCCCCCCCC(=O)N(CCOCCOCCOC)CCOCCOCCOC [DS2]	–	–	compatible	compatible	compatible	95%-100	0.1%	compatible	delay in the contrived positive amplification	no detrimental impact
